How the values were obtained:
Type in all cases: in vivo
weeds [1] = test: Post-emergence test, activity against weeds
Protocol: (§1) • Solvent: 5 parts by weight of acetone • Emulsifier: 1 part by weight of alkylaryl polyglycol ether
(§2) To produce a suitable preparation of active compound, one part by weight of active compound is mixed with the stated amount of solvent, the stated amount of emulsifier is added and the concentrate is diluted with water to the desired concentration.
(§3) Test plants which have a height of 5-15 cm are sprayed with the preparation of active compound such that the particular amounts of active compound desired are applied per unit area. The concentration of the spray liquor is chosen so that the particular amounts of active compound desired are applied in 1000 l of water/ha.
(§4) After three weeks, the degree of damage to the plants is rated in % damage in comparison to the development of the untreated control.
(§5) The figures denote: • 0%=no effect (like untreated control) • 100%=total destruction

weeds [2] = test: Pre-emergence test, activity against weeds
Protocol: as §1
(§6) To produce a suitable preparation of active compound, 1 part by weight of active compound is mixed with the stated amount of solvent, the stated amount of emulsifier is added and the concentrate is diluted with water to the desired concentration.
(§7) Seeds of the test plants are sown in normal soil. After about 24 hours, the soil is sprayed with the preparation of active compound such that the particular amount of active compound desired is applied per unit area. The concentration of the spray liquor is chosen so that the particular amount of active compound desired is applied in 1000 liters of water per hectare.
as §4
(§8) The figure denote: • 0%=no effect (like untreated control) • 100%=total destruction

Amaranthus [3] = test: Pre-emergence test/greenhouse; conditions: greenhouse, rated after three weeks
Protocol: as §1, §6, §7, §4, §8

Alopecurus [4] = test: Pre-emergence test/greenhouse; conditions: greenhouse, rated after three weeks
Protocol: as §1, §6, §7, §4, §8

Galium = test: Pre-emergence test/greenhouse; conditions: greenhouse, 250 g of ai/ha, rated after three weeks
Protocol: as §1, §6, §7, §4, §8

Sinapis [5] = test: Pre-emergence test/greenhouse; conditions: greenhouse, rated after three weeks
Protocol: as §1, §6, §7, §4, §8

Abutilon [6] = test: Pre-emergence test/greenhouse; conditions: greenhouse, rated after three weeks
Protocol: as §1, §6, §7, §4, §8

Xanthium [7] = test: Pre-emergence test/greenhouse; conditions: greenhouse, rated after three weeks
Protocol: as §1, §6, §7, §4, §8

Setaria [8] = test: Pre-emergence test/greenhouse; conditions: greenhouse, rated after three weeks
Protocol: as §1, §6, §7, §4, §8

Cyperus = test: Pre-emergence test/greenhouse; conditions: greenhouse, rated after three weeks
Protocol: as §1, §6, §7, §4, §8

Amaranthus [9] = test: Post-emergence test/greenhouse; conditions: greenhouse, rated after three weeks
Protocol: as §1, §2, §3, §4, §5

Alopecurus [10] = test: Post-emergence test/greenhouse; conditions: greenhouse, rated after three weeks
Protocol: as §1, §2, §3, §4, §5

Sinapis [11] = test: Post-emergence test/greenhouse; conditions: greenhouse, rated after three weeks
Protocol: as §1, §2, §3, §4, §5

Abutilon [12] = test: Post-emergence test/greenhouse; conditions: greenhouse, rated after three weeks
Protocol: as §1, §2, §3, §4, §5

Xanthium [13] = test: Post-emergence test/greenhouse; conditions: greenhouse, rated after three weeks
Protocol: as §1, §2, §3, §4, §5

Setaria [14] = test: Post-emergence test/greenhouse; conditions: greenhouse, rated after three weeks
Protocol: as §1, §2, §3, §4, §5

Avenafatua = test: Post-emergence test/greenhouse; conditions: greenhouse, rated after three weeks
Protocol: as §1, §2, §3, §4, §5

CCOc1nn(C(=O)NS(=O)(=O)c2c(C(=O)OC)csc2C)c(=O)n1C1CC1 [Example 6]
95%: degree of damage to the plants, Amaranthus (Amaranthus [3]; 250 g of ai/ha) | degree of damage to the plants, Alopecurus (Alopecurus [4]; 250 g of ai/ha) | degree of damage to the plants, Sinapis (Sinapis [5]; 250 g of ai/ha) | degree of damage to the plants, Xanthium (Xanthium [7]; 250 g of ai/ha)
100%: degree of damage to the plants, Abutilon (Abutilon [6]; 250 g of ai/ha) | degree of damage to the plants, Setaria (Setaria [8]; 250 g of ai/ha) | degree of damage to the plants, Cyperus (Cyperus; 250 g of ai/ha) | degree of damage to the plants, Amaranthus (Amaranthus [9]; 250 g of ai/ha) | degree of damage to the plants, Alopecurus (Alopecurus [10]; 250 g of ai/ha) | degree of damage to the plants, Sinapis (Sinapis [11]; 250 g of ai/ha) | degree of damage to the plants, Abutilon (Abutilon [12]; 250 g of ai/ha) | degree of damage to the plants, Xanthium (Xanthium [13]; 250 g of ai/ha) | degree of damage to the plants, Setaria (Setaria [14]; 250 g of ai/ha) | degree of damage to the plants, Avenafatua (Avenafatua; 250 g of ai/ha)
very strong activity: activity against weeds (weeds [1]) | activity against weeds (weeds [2])
90%: degree of damage to the plants, Galium (Galium)

CCCOc1nn(C(=O)NS(=O)(=O)c2c(C(=O)OC)csc2C)c(=O)n1C1CC1 [Example 7]
very strong activity: activity against weeds (weeds [1]) | activity against weeds (weeds [2])
90%: degree of damage to the plants, Alopecurus (Alopecurus [4]; 250 g of ai/ha) | degree of damage to the plants, Xanthium (Xanthium [13]; 250 g of ai/ha) | degree of damage to the plants, Setaria (Setaria [14]; 250 g of ai/ha)
100%: degree of damage to the plants, Cyperus (Cyperus; 250 g of ai/ha) | degree of damage to the plants, Amaranthus (Amaranthus [9]; 250 g of ai/ha) | degree of damage to the plants, Sinapis (Sinapis [11]; 250 g of ai/ha) | degree of damage to the plants, Abutilon (Abutilon [12]; 250 g of ai/ha) | degree of damage to the plants, Avenafatua (Avenafatua; 250 g of ai/ha)
95%: degree of damage to the plants, Amaranthus (Amaranthus [3]; 250 g of ai/ha) | degree of damage to the plants, Galium (Galium) | degree of damage to the plants, Sinapis (Sinapis [5]; 250 g of ai/ha) | degree of damage to the plants, Abutilon (Abutilon [6]; 250 g of ai/ha) | degree of damage to the plants, Setaria (Setaria [8]; 250 g of ai/ha) | degree of damage to the plants, Alopecurus (Alopecurus [10]; 250 g of ai/ha)

COC(=O)c1csc(C)c1S(=O)(=O)NC(=O)n1nc(OC)n(C)c1=O [Example 2]
80%: degree of damage to the plants, Avenafatua (Avenafatua; 60 g of ai/ha)
95%: degree of damage to the plants, Alopecurus (Alopecurus [4]; 60 g of ai/ha) | degree of damage to the plants, Sinapis (Sinapis [5]; 60 g of ai/ha) | degree of damage to the plants, Abutilon (Abutilon [6]; 60 g of ai/ha) | degree of damage to the plants, Setaria (Setaria [8]; 60 g of ai/ha) | degree of damage to the plants, Alopecurus (Alopecurus [10]; 60 g of ai/ha)
100%: degree of damage to the plants, Amaranthus (Amaranthus [3]; 60 g of ai/ha) | degree of damage to the plants, Xanthium (Xanthium [7]; 60 g of ai/ha) | degree of damage to the plants, Cyperus (Cyperus; 60 g of ai/ha) | degree of damage to the plants, Amaranthus (Amaranthus [9]; 60 g of ai/ha) | degree of damage to the plants, Sinapis (Sinapis [11]; 60 g of ai/ha) | degree of damage to the plants, Abutilon (Abutilon [12]; 60 g of ai/ha) | degree of damage to the plants, Xanthium (Xanthium [13]; 60 g of ai/ha) | degree of damage to the plants, Setaria (Setaria [14]; 60 g of ai/ha)
very strong activity: activity against weeds (weeds [1]) | activity against weeds (weeds [2])

COC(=O)c1csc(C)c1S(=O)(=O)NC(=O)n1nc(C2CC2)n(C2CC2)c1=O [Example 9]
95%: degree of damage to the plants, Alopecurus (Alopecurus [4]; 250 g of ai/ha) | degree of damage to the plants, Galium (Galium) | degree of damage to the plants, Sinapis (Sinapis [5]; 250 g of ai/ha)
100%: degree of damage to the plants, Amaranthus (Amaranthus [3]; 250 g of ai/ha) | degree of damage to the plants, Abutilon (Abutilon [6]; 250 g of ai/ha) | degree of damage to the plants, Setaria (Setaria [8]; 250 g of ai/ha) | degree of damage to the plants, Cyperus (Cyperus; 250 g of ai/ha) | degree of damage to the plants, Amaranthus (Amaranthus [9]; 250 g of ai/ha) | degree of damage to the plants, Alopecurus (Alopecurus [10]; 250 g of ai/ha) | degree of damage to the plants, Sinapis (Sinapis [11]; 250 g of ai/ha) | degree of damage to the plants, Abutilon (Abutilon [12]; 250 g of ai/ha) | degree of damage to the plants, Xanthium (Xanthium [13]; 250 g of ai/ha) | degree of damage to the plants, Setaria (Setaria [14]; 250 g of ai/ha) | degree of damage to the plants, Avenafatua (Avenafatua; 250 g of ai/ha)
very strong activity: activity against weeds (weeds [1]) | activity against weeds (weeds [2])

Source: US7642221B2, “Substituted thien-3-yl-sulphonylamino(thio)carbonyl-triazoline(ethi)ones” (Bayer Aktiengesellschaft, priority 1999, dated 2010)
